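Interpolation was linear, between the two tested concentrations surrounding the appropriate level; five concentrations were tested over 48 hours in 96-well plates. Here, GI50 denotes the concentration required for 50% inhibition of growth.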 Activity calls are given as the source filed them. Cut-off read from the data, not from the text of the source: active = GI50 up to about 1.1 µM and inactive = higher.
Tests used:
Assay in all cases: DTP human tumour cell line panel, 48 h
[1] = test system: U-251
[2] = test system: OVCAR-4
[3] = test system: PC-3
[4] = test system: T47D
[5] = test system: NCI-H460
[6] = test system: HCT-15
[7] = test system: IGROV-1
[8] = test system: A549
[9] = test system: RXF 393
[10] = test system: EKVX
[11] = test system: K562
[12] = test system: SF-295
[13] = test system: SK-MEL-28
[14] = test system: NCI-H23
[15] = test system: MDA-MB-231
[16] = test system: SK-MEL-2
[17] = test system: MOLT-4
[18] = test system: TK-10
[19] = test system: SF-539

SMILES | GI50 [1] | GI50 [2] | GI50 [3] | GI50 [4] | GI50 [5] | GI50 [6] [µM] | GI50 [7] | GI50 [8] | GI50 [9] | GI50 [10] | GI50 [11] | GI50 [12] | GI50 [13] | GI50 [14] | GI50 [15] | GI50 [16] | GI50 [17] | GI50 [18] | GI50 [19]
O=C1Nc2cccc3cc(NCC(O)CCl)cc1c23 (stereo unspecified) | 32.9 µM (inactive) | > 100 µM (inactive) | 38.8 µM (inactive) | 88.5 µM (inactive) | > 100 µM (inactive) | 48.9 | 59 µM (inactive) | 56.9 µM (inactive) | 76.9 µM (inactive) | 32.5 µM (inactive) | 91.2 µM (inactive) | 73.1 µM (inactive) | > 100 µM (inactive) | > 100 µM (inactive) | > 100 µM (inactive) | 21.5 µM (inactive) | 22.8 µM (inactive) | 75.5 µM (inactive) | 
CN(NC(=O)c1ccco1)C1=NCCCCN1 | > 100 µM (inactive) | > 100 µM (inactive) | > 100 µM (inactive) | > 100 µM (inactive) | > 100 µM (inactive) | > 100 | > 100 µM (inactive) | > 100 µM (inactive) | > 100 µM (inactive) | > 100 µM (inactive) | > 100 µM (inactive) | > 100 µM (inactive) | > 100 µM (inactive) | > 100 µM (inactive) | > 100 µM (inactive) | > 100 µM (inactive) | > 100 µM (inactive) | > 100 µM (inactive) | > 100 µM (inactive)
CC(C)C1=CC23CCC4C(C)(C(=O)O)CCCC4(C)C2CC1C1C(=O)N(c2ccc(C(=O)O)cc2)C(=O)C13 (stereo unspecified) | > 100 µM (inactive) | > 100 µM (inactive) | > 100 µM (inactive) | > 100 µM (inactive) | > 100 µM (inactive) | > 100 | > 100 µM (inactive) | > 100 µM (inactive) | > 100 µM (inactive) | > 100 µM (inactive) | > 100 µM (inactive) | > 100 µM (inactive) | > 100 µM (inactive) | > 100 µM (inactive) | > 100 µM (inactive) | > 100 µM (inactive) | > 100 µM (inactive) | > 100 µM (inactive) | > 100 µM (inactive)

— ChEMBL document CHEMBL1201862, “PubChem BioAssay data set” (2004)
